Experimental data as given in PMC5078040 (Oncotarget, 2016).

Assays:
[1] = target: T1, ABL1(M351T)-phosphorylated (Homo sapiens, UniProt P00519, M351T); assay: KinomeScan; assay type: binding; settings: 1uM
T1 construct: purchased DiscoveRx KINOMEscan

[2] = target: T2, ABL1(Y253F)-phosphorylated (Homo sapiens, UniProt P00519, Y253F); assay: KinomeScan; assay type: binding; settings: 1uM
T2 construct: purchased DiscoveRx KINOMEscan

ABL1-phosphorylated = target: T3, ABL1-phosphorylated (Homo sapiens, UniProt P00519); assay: KinomeScan; assay type: binding; settings: 1uM
T3 construct: purchased DiscoveRx KINOMEscan

ACVR1B = target: T4, ACVR1B (Homo sapiens, UniProt P36896); assay: KinomeScan; assay type: binding; settings: 1uM
T4 construct: purchased DiscoveRx KINOMEscan

ACVR2B = target: T5, ACVR2B (Homo sapiens, UniProt Q13705); assay: KinomeScan; assay type: binding; settings: 1uM
T5 construct: purchased DiscoveRx KINOMEscan

ADCK3 = target: T6, ADCK3 (Homo sapiens, UniProt Q8NI60); assay: KinomeScan; assay type: binding; settings: 1uM
T6 construct: purchased DiscoveRx KINOMEscan

AKT2 = target: T7, AKT2 (Homo sapiens, UniProt P31751); assay: KinomeScan; assay type: binding; settings: 1uM
T7 construct: purchased DiscoveRx KINOMEscan

AKT3 = target: T8, AKT3 (Homo sapiens, UniProt Q9Y243); assay: KinomeScan; assay type: binding; settings: 1uM
T8 construct: purchased DiscoveRx KINOMEscan
T8 sequence (Q9Y243 whole entry): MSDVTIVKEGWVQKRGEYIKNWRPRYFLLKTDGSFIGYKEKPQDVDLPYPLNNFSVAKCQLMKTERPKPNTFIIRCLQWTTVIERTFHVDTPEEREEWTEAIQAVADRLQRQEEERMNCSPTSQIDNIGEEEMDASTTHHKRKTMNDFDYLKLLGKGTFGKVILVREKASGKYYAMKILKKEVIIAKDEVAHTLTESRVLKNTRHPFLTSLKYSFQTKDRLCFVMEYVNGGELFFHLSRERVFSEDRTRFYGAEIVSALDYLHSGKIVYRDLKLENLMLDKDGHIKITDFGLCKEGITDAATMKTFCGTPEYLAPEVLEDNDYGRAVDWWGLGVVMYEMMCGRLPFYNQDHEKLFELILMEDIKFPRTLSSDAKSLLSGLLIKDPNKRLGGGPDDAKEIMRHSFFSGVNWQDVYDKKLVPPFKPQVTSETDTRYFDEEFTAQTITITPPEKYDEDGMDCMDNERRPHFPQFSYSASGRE

ANKK1 = target: T9, ANKK1 (Homo sapiens, UniProt Q8NFD2); assay: KinomeScan; assay type: binding; settings: 1uM
T9 construct: purchased DiscoveRx KINOMEscan

BMPR1B = target: T10, BMPR1B (Homo sapiens, UniProt O00238); assay: KinomeScan; assay type: binding; settings: 1uM
T10 construct: purchased DiscoveRx KINOMEscan

CAMK1D = target: T11, CAMK1D (Homo sapiens, UniProt Q8IU85); assay: KinomeScan; assay type: binding; settings: 1uM
T11 construct: purchased DiscoveRx KINOMEscan

CAMK2D = target: T12, CAMK2D (Homo sapiens, UniProt Q13557); assay: KinomeScan; assay type: binding; settings: 1uM
T12 construct: purchased DiscoveRx KINOMEscan
T12 sequence (Q13557 whole entry): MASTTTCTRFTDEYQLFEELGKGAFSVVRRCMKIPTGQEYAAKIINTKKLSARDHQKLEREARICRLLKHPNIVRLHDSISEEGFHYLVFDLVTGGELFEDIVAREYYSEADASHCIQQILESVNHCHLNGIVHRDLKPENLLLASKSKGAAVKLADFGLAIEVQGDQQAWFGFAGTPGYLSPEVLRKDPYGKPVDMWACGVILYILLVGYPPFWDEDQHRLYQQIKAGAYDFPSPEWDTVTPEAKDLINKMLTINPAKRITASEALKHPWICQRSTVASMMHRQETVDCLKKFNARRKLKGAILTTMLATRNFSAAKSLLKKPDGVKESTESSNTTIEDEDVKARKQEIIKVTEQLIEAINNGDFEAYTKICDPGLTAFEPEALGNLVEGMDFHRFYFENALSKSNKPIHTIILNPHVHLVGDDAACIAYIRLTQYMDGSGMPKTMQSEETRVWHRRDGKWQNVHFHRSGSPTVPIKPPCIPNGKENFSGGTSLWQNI

CDK7 = target: T13, CDK7 (Homo sapiens, UniProt P50613); assay: KinomeScan; assay type: binding; settings: 1uM
T13 construct: purchased DiscoveRx KINOMEscan

CDKL2 = target: T14, CDKL2 (Homo sapiens, UniProt Q92772); assay: KinomeScan; assay type: binding; settings: 1uM
T14 construct: purchased DiscoveRx KINOMEscan

DDR2 = target: T15, DDR2 (Homo sapiens, UniProt Q16832); assay: KinomeScan; assay type: binding; settings: 1uM
T15 construct: purchased DiscoveRx KINOMEscan

DLK = target: T16, DLK (Homo sapiens, UniProt Q12852); assay: KinomeScan; assay type: binding; settings: 1uM
T16 construct: purchased DiscoveRx KINOMEscan
T16 sequence (Q12852 whole entry): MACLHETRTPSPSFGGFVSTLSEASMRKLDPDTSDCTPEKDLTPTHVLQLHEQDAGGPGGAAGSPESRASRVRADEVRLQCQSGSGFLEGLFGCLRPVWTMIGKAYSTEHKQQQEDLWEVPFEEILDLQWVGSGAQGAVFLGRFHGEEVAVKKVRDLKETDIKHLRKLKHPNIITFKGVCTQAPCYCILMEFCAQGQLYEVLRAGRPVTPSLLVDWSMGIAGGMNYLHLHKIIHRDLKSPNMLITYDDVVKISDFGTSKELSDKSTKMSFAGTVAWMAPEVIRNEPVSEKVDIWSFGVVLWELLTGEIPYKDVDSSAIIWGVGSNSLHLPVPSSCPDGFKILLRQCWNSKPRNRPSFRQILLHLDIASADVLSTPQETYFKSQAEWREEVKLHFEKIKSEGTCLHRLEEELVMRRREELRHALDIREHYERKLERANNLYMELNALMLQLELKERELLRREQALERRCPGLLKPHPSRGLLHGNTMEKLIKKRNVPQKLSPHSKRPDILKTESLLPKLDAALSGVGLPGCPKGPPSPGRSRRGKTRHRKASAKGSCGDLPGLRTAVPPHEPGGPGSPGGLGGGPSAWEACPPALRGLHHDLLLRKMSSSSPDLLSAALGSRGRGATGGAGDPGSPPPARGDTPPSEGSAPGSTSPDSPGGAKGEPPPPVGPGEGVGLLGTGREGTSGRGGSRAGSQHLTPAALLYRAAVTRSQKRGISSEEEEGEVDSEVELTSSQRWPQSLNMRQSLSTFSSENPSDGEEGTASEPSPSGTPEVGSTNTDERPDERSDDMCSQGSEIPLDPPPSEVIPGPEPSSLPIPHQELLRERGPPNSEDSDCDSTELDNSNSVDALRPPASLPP

EGFR(G719S) = target: T17, EGFR(G719S) (Homo sapiens, UniProt P00533, G719S); assay: KinomeScan; assay type: binding; settings: 1uM
T17 construct: purchased DiscoveRx KINOMEscan

ERN1 = target: T18, ERN1 (Homo sapiens, UniProt O75460); assay: KinomeScan; assay type: binding; settings: 1uM
T18 construct: purchased DiscoveRx KINOMEscan
T18 sequence (O75460 19-977): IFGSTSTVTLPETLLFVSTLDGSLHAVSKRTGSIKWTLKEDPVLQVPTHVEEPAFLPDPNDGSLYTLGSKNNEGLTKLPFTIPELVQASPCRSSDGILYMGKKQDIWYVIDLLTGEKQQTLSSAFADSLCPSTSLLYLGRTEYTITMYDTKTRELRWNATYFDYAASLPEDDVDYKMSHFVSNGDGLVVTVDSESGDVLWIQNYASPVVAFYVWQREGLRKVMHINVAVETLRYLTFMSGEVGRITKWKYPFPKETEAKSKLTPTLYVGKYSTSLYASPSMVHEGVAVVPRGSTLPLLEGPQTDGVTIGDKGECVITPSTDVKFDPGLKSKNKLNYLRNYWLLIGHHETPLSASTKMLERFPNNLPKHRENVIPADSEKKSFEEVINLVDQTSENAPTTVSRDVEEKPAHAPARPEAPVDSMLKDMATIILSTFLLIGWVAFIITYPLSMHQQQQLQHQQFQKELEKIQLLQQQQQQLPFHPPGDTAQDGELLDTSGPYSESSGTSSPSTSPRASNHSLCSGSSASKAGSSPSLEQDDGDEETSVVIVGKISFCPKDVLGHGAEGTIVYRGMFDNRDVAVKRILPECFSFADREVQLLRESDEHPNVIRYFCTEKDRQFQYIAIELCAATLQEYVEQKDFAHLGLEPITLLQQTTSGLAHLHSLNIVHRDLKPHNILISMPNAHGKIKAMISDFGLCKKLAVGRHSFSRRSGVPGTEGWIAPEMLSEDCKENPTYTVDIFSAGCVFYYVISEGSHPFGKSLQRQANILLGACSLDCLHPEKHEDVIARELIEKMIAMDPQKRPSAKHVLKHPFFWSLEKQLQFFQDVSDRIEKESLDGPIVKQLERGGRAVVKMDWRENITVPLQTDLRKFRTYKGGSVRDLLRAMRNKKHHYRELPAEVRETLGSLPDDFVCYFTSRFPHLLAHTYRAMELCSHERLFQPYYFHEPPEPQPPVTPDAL

FER = target: T19, FER (Homo sapiens, UniProt P16591); assay: KinomeScan; assay type: binding; settings: 1uM
T19 construct: purchased DiscoveRx KINOMEscan

GCN2(Kin.Dom.2,S808G) = target: T20, GCN2(Kin.Dom.2,S808G) (Homo sapiens, UniProt Q9P2K8, S808G); assay: KinomeScan; assay type: binding; settings: 1uM
T20 construct: GCN2(Kin.Dom.2,S808G); purchased DiscoveRx KINOMEscan

[3] = target: T21, JAK1(JH2domain-pseudokinase) (Homo sapiens, UniProt P23458); assay: KinomeScan; assay type: binding; settings: 1uM
T21 construct: JAK1(JH2domain-pseudokinase); purchased DiscoveRx KINOMEscan

MINK = target: T22, MINK (Homo sapiens, UniProt Q8N4C8); assay: KinomeScan; assay type: binding; settings: 1uM
T22 construct: purchased DiscoveRx KINOMEscan

MST3 = target: T23, MST3 (Homo sapiens, UniProt Q9Y6E0); assay: KinomeScan; assay type: binding; settings: 1uM
T23 construct: purchased DiscoveRx KINOMEscan

PDGFRA = target: T24, PDGFRA (Homo sapiens, UniProt P16234); assay: KinomeScan; assay type: binding; settings: 1uM
T24 construct: purchased DiscoveRx KINOMEscan

PDPK1 = target: T25, PDPK1 (Homo sapiens, UniProt O15530); assay: KinomeScan; assay type: binding; settings: 1uM
T25 construct: purchased DiscoveRx KINOMEscan
T25 sequence (O15530 whole entry): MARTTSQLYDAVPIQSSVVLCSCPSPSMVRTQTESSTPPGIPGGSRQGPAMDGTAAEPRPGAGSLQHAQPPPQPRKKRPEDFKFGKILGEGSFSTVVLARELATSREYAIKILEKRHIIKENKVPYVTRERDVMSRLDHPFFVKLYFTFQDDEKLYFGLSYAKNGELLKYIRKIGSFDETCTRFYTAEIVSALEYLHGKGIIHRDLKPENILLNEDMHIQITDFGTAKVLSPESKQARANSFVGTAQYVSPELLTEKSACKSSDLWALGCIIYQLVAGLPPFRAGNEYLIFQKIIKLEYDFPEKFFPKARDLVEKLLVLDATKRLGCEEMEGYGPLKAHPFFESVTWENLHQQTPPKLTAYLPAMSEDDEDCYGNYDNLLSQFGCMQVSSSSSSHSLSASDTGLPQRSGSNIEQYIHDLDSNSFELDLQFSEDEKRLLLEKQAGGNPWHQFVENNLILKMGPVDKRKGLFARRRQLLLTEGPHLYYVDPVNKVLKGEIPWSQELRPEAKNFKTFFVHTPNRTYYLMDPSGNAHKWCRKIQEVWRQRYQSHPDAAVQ

PIK3CA(E542K) = target: T26, PIK3CA(E542K) (Homo sapiens, UniProt P42336, E542K); assay: KinomeScan; assay type: binding; settings: 1uM
T26 construct: purchased DiscoveRx KINOMEscan
T26 sequence (P42336 whole entry E542K): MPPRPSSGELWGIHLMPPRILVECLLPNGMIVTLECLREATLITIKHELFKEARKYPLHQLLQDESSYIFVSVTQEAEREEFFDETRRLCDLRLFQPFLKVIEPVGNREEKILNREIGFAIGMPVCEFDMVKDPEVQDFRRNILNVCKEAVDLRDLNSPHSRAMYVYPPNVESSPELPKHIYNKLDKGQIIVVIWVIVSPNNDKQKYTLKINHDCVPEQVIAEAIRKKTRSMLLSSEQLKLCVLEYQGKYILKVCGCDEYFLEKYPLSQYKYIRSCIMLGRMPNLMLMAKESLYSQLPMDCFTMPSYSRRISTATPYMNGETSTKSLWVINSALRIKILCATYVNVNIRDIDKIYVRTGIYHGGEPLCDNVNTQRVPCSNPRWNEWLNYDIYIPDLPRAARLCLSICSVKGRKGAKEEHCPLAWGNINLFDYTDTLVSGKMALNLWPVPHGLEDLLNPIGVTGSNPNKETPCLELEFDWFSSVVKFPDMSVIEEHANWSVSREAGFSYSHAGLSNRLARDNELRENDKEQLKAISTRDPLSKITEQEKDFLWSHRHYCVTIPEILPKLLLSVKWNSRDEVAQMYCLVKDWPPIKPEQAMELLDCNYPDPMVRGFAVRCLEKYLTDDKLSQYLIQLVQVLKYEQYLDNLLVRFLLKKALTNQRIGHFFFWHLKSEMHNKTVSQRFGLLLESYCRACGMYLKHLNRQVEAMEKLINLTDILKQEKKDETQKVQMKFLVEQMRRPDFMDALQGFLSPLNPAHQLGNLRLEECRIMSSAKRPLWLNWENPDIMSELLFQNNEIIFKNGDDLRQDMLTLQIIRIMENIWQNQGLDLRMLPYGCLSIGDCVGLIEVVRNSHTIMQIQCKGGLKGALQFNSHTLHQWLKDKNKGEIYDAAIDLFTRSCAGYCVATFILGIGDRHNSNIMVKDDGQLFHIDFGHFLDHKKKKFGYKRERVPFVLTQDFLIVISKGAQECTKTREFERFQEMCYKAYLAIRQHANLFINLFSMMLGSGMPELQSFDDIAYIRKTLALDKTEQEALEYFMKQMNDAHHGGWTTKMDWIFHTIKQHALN

PKMYT1 = target: T27, PKMYT1 (Homo sapiens, UniProt Q99640); assay: KinomeScan; assay type: binding; settings: 1uM
T27 construct: purchased DiscoveRx KINOMEscan

PLK1 = target: T28, PLK1 (Homo sapiens, UniProt P53350); assay: KinomeScan; assay type: binding; settings: 1uM
T28 construct: purchased DiscoveRx KINOMEscan

PRKD2 = target: T29, PRKD2 (Homo sapiens, UniProt Q9BZL6); assay: KinomeScan; assay type: binding; settings: 1uM
T29 construct: purchased DiscoveRx KINOMEscan

RET(M918T) = target: T30, RET(M918T) (Homo sapiens, UniProt P07949, M918T); assay: KinomeScan; assay type: binding; settings: 1uM
T30 construct: purchased DiscoveRx KINOMEscan

RIPK2 = target: T31, RIPK2 (Homo sapiens, UniProt O43353); assay: KinomeScan; assay type: binding; settings: 1uM
T31 construct: purchased DiscoveRx KINOMEscan

[4] = target: T32, RSK1(Kin.Dom.1-N-terminal) (Homo sapiens, UniProt Q15418); assay: KinomeScan; assay type: binding; settings: 1uM
T32 construct: RSK1(Kin.Dom.1-N-terminal); purchased DiscoveRx KINOMEscan
T32 sequence (Q15418 1-391 limits assumed): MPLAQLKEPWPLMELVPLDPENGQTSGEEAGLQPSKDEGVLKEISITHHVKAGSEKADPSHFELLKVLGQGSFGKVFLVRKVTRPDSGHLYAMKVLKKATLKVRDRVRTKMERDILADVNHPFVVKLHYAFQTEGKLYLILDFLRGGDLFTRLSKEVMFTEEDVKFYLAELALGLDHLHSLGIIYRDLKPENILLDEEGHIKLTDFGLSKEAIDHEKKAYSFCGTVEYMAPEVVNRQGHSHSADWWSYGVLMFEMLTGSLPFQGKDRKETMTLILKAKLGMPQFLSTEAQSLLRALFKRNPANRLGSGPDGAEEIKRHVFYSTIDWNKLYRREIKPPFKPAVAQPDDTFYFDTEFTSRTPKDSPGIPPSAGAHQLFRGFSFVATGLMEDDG

VRK2 = target: T33, VRK2 (Homo sapiens, UniProt Q86Y07); assay: KinomeScan; assay type: binding; settings: 1uM
T33 construct: purchased DiscoveRx KINOMEscan

CLL patient primary cell = assay: Anti-proliferative efficacy against patient primary cells; assay type: cell-based; settings: Homo sapiens
Experimental: Peripheral blood mononuclear cells (PBMCs) from individuals with CLL were isolated by density centrifugation through Ficoll and frozen for each subject. Those subjects with low white counts whose CLL cell purity was expected to be < 85% underwent B cell isolation using RosetteSep. The protocol was approved by the Dana-Farber Harvard Cancer Center Institutional Review Board and all subjects signed written informed consent prior to participation.
Cells were grown in 96-well culture plates (3000-4000/well). […] Cell proliferation was determined after treatment with compounds for 72 hours. Cell viability was measured using the CellTiter–Glo Assay Kit (Promega, USA), according to the manufacturer's instructions, and luminescence was measured in a multi-label reader (Envision, PerkinElmer, USA). Data were normalized to control groups (DMSO) and represented by the mean of three independent measurements with standard error <20%. GI50 values were calculated using Prism 5.0 (GraphPad Software, San Diego, CA).

PI3Kδ = PI3Kδ (Homo sapiens, UniProt O00329); assay: PI3Ks isoform in cell EC50 assay (AKT phosphorylation, Western Blotting); assay type: cell-based; set-up: endogenous in cells; host or cells: Raji; settings: Raji cells, 1μg/ml anti-IgM, Akt phosphorylation at T308; read-out: cellular EC50 PI3K Delta

For `Cc1nc(NC(=O)[C@@H](N)C(C)C)sc1-c1cnc(Cl)c(NS(=O)(=O)c2ccccc2)c1` [PI3KD-IN-015], the “KinomeScan ABL1(M351T)-phosphorylated” value [1] was 98, the “KinomeScan ABL1(Y253F)-phosphorylated” value [2] was 100 and the “KinomeScan ABL1-phosphorylated” value (ABL1-phosphorylated) was 85. The “KinomeScan ACVR1B” value (ACVR1B) was 85, the “KinomeScan ACVR2B” value (ACVR2B) was 100 and the “KinomeScan ADCK3” value (ADCK3) was 100. For the same molecule, the “KinomeScan AKT2” value (AKT2) was 86, the “KinomeScan AKT3” value (AKT3) was 89 and the “KinomeScan ANKK1” value (ANKK1) was 100. For the same molecule, the “KinomeScan BMPR1B” value (BMPR1B) was 80, the “KinomeScan CAMK1D” value (CAMK1D) was 94 and the “KinomeScan CAMK2D” value (CAMK2D) was 95. The “KinomeScan CDK7” value (CDK7) was 100, the “KinomeScan CDKL2” value (CDKL2) was 100 and the “KinomeScan DDR2” value (DDR2) was 96. For the same molecule, the “KinomeScan DLK” value (DLK) was 99, the “KinomeScan EGFR(G719S)” value (EGFR(G719S)) was 100 and the “KinomeScan ERN1” value (ERN1) was 92. The “KinomeScan FER” value (FER) was 89, the “KinomeScan GCN2(Kin.Dom.2,S808G)” value (GCN2(Kin.Dom.2,S808G)) was 100 and the “KinomeScan JAK1(JH2domain-pseudokinase)” value [3] was 100. For the same molecule, the “KinomeScan MINK” value (MINK) was 100, the “KinomeScan MST3” value (MST3) was 96 and the “KinomeScan PDGFRA” value (PDGFRA) was 94. The “KinomeScan PDPK1” value (PDPK1) was 100, the “KinomeScan PIK3CA(E542K)” value (PIK3CA(E542K)) was 5.4 and the “KinomeScan PKMYT1” value (PKMYT1) was 100. For the same molecule, the “KinomeScan PLK1” value (PLK1) was 90, the “KinomeScan PRKD2” value (PRKD2) was 94 and the “KinomeScan RET(M918T)” value (RET(M918T)) was 95. The “KinomeScan RIPK2” value (RIPK2) was 98, the “KinomeScan RSK1(Kin.Dom.1-N-terminal)” value [4] was 74 and the “KinomeScan VRK2” value (VRK2) was 91. It also gave a GI50 (CLL patient primary cell; patient primary cell CLL16) of 7800 nM, a GI50 (CLL patient primary cell; patient primary cell CLL18) greater than 10000 nM and a GI50 (CLL patient primary cell; patient primary cell CLL19) of 1500 nM. The EC50 (PI3Kδ) was 13 nM.
